From article PMC11855827, “High-Throughput Screening of Five Compound Libraries for Anthelmintic Activity and Toxicity Leads to the Discovery of Two Flavonoid Compounds” (International Journal of Molecular Sciences, 2025)
Read-outs that look alike come from different tables or passages of the source.

Tested on: C. elegans
[1] = Table S2, C. elegans SS assay, 110 μM, 0 h, averages of 4 data points
[2] = Table S2, C. elegans SS assay, 110 μM, 24 h, averages of 4 data points

SMILES	Percentage of motility inhibition 0 h [1] [%]	Percentage of motility inhibition 24 h [2] [%]	Percentage of motility inhibition 0 h (110 µM) [%]	Percentage of motility inhibition 24 h (110 µM) [%]
CO/N=C(\C(=O)N[C@@H]1C(=O)N2C(C(=O)[O-])=CCS[C@H]12)c1csc(N)n1.[Na+] [Ceftizoxime (sodium)]	0	3		
CO/N=C(\C(=O)N[C@@H]1C(=O)N2C(C(=O)[O-])=C(CSc3nc(=O)c([O-])nn3C)CS[C@H]12)c1csc(N)n1.CO/N=C(\C(=O)N[C@@H]1C(=O)N2C(C(=O)[O-])=C(CSc3nc(=O)c([O-])nn3C)CS[C@H]12)c1csc(N)n1.O.O.O.O.O.O.O.[Na+].[Na+].[Na+].[Na+] [Ceftriaxone (sodium salt)]			25	16
CO/N=C(\C(=O)N[C@@H]1C(=O)N2C(C(=O)[O-])=C(COC(N)=O)CS[C@H]12)c1ccco1.[Na+] [Cefuroxime (sodium)]	19	17		
CC[C@H]1CN2CCc3cc(OC)c(OC)cc3[C@@H]2C[C@@H]1C[C@H]1NCCc2cc(O)c(OC)cc21.Cl.Cl [Cephaeline (dihydrochloride)]	18	4		
CC1=C(C(=O)O)N2C(=O)[C@@H](NC(=O)[C@H](N)c3ccccc3)[C@H]2SC1.O [Cephalexin (monohydrate)]	8	0		
CC(=O)OCC1=C(C(=O)[O-])N2C(=O)[C@@H](NC(=O)Cc3cccs3)[C@H]2SC1.[Na+] [Cephalothin (sodium)]	9	11		
COc1ccc2c(c[n+](C)c3c4cc5c(cc4ccc23)OCO5)c1OC.[Cl-] [Chelerythrine (chloride)]	17	22		
CC(=O)O.CC(=O)O.NC(=N\CCCCCC/N=C(N)/N=C(\N)Nc1ccc(Cl)cc1)/N=C(\N)Nc1ccc(Cl)cc1 [Chlorhexidine (diacetate)]	38	62		
N=C(NCCCCCCNC(=N)NC(=N)Nc1ccc(Cl)cc1)NC(=N)Nc1ccc(Cl)cc1.O=C(O)[C@H](O)[C@@H](O)[C@H](O)[C@H](O)CO.O=C(O)[C@H](O)[C@@H](O)[C@H](O)[C@H](O)CO [Chlorhexidine (digluconate)]	39	46		
CN(C)[C@@H]1C(=O)C(C(N)=O)=C(O)[C@@]2(O)C(=O)C3=C(O)c4c(O)ccc(Cl)c4[C@@](C)(O)[C@H]3C[C@@H]12.Cl [Chlortetracycline (hydrochloride)]	24	5		
C[C@H](CCC(=O)[O-])[C@H]1CC[C@H]2[C@@H]3[C@H](O)C[C@@H]4C[C@H](O)CC[C@]4(C)[C@H]3C[C@H](O)[C@]12C.[Na+] [Cholic acid (sodium)]	0	5		
C[N+](C)(C)CCO.O=C([O-])C(O)C(O)C(=O)O (stereo not drawn) [Choline (bitartrate)]	0	0		
C[N+](C)(C)CCO.[Cl-] [Choline (chloride)]	51	17		
O=C(O)[C@H]1O[C@@H](Oc2cc(O)c3c(=O)cc(-c4ccccc4)oc3c2)[C@H](O)[C@@H](O)[C@@H]1O [Chrysin‐7‐O‐glucuronide]	0	37		
COc1cc(-c2oc3cc(OC)c(OC)c(O)c3c(=O)c2OC)ccc1O [Chrysosplenetin]	17	6		
C[C@H](CC(=O)[C@@H]1OC1(C)C)[C@H]1C(=O)C[C@@]2(C)C3=CC[C@H]4C(C)(C)[C@@H](O[C@@H]5OC[C@@H](O)[C@H](O)[C@H]5O)CC[C@@]45C[C@@]35[C@@H](O)C[C@]12C [Cimicifugoside H-1]	0	3		
C[C@@H]1C[C@H]2O[C@@]3(O[C@@H]2C(C)(C)O)[C@H](O)[C@@]2(C)[C@@H]4CC[C@H]5C(C)(C)[C@@H](O[C@@H]6OC[C@@H](O)[C@H](O)[C@H]6O)CC[C@@]56C[C@@]46CC[C@]2(C)[C@@H]13 [Cimigenoside]	30	17		
CC(=O)O[C@@H]1C[C@@]23C[C@@]24CC[C@H](O[C@@H]2OC[C@H](O)[C@H](O)[C@H]2O)C(C)(C)[C@@H]4CC[C@H]3[C@]2(C)[C@@H](O)[C@]34O[C@H](C[C@@H](C)[C@@H]3[C@@]12C)[C@@H](C(C)(C)O)O4 [Cimiracemoside D]	0	0		
Oc1cc(O)c2c(c1)O[C@@]1(c3ccc(O)c(O)c3)Oc3cc(O)c4c(c3[C@@H]2[C@H]1O)O[C@H](c1ccc(O)c(O)c1)[C@H](O)[C@H]4c1c(O)cc(O)c2c1O[C@H](c1ccc(O)c(O)c1)[C@H](O)C2 [Cinnamtannin B‐1]	0	4		
C[N+](C)(C)CCOP(=O)([O-])OP(=O)([O-])OC[C@H]1O[C@@H](n2ccc(N)nc2=O)[C@H](O)[C@@H]1O.[Na+] [Citicoline (sodium)]	4	0		
O.O=C(O)CC(O)(CC(=O)O)C(=O)O [Citric acid (monohydrate)]	63	32		
N.N.N.O=C(O)CC(O)(CC(=O)O)C(=O)O [Citric acid (triammonium)]	8	0		
O.O=C([O-])CC(O)(CC(=O)[O-])C(=O)[O-].[K+].[K+].[K+] [Citric acid (tripotassium hydrate)]	28	4		
O=C([O-])CC(O)(CC(=O)[O-])C(=O)[O-].[Na+].[Na+].[Na+] [Citric acid (trisodium)]	8	2		
Cl.Clc1ccc(Cn2c(CN3CCCC3)nc3ccccc32)cc1 [Clemizole (hydrochloride)]	25	69		
CCC[C@@H]1C[C@@H](C(=O)N[C@@H]([C@H]2O[C@H](SC)[C@H](O)[C@@H](O)[C@H]2O)[C@H](C)Cl)N(C)C1.Cl [Clindamycin (hydrochloride)]	28	3		
Nc1ncnc(N[C@@H]2O[C@H](CO)[C@@H](O)[C@H]2O)c1[N+](=O)[O-] [Clitocine]	0	4		
